# Experimental data: paper PMC11019550, “Potent Inhibition of E. coli DXP Synthase by a gem-Diaryl Bisubstrate Analog” (ACS Infectious Diseases, 2024)
# What was measured:
# WT EcDXPS = molecular target: T1, WT EcDXPS (Escherichia coli, UniProt P77488); experiment: Time-dependent inhibition, reaction progress curves on WT EcDXPS; format: biochemical; conditions: 8 at 400 or 800 nM, 10 at 1 or 100 μM
# T1 construct: made in house
# Method: To determine if 8 is also a slow-onset inhibitor of DXPS, reaction progress was monitored upon simultaneous addition of substrates (pyruvate and D-GAP) in the presence or absence of inhibitor. In the absence of inhibitor, the reaction progress curve is linear. […] To assess the importance of the carboxyl group of 8, we evaluated descarboxy analog 10 in the same manner.
# EcDXPS (100 nM) and IspC (2 μM) were preincubated in enzyme reaction buffer (100 mM HEPES pH 8, 2 mM MgCl2, 5 mM NaCl, 1 mM ThDP, and 200 μM NADPH) with 250 μM D-GAP for 10 min at 25 °C. The reaction was initiated by the addition of pyruvate (1 mM) and inhibitor (400 nM and 800 nM 8; 1 μM and 100 μM 10). The reaction mixture was incubated at 25 °C, and the absorbance of NADPH at 340 nm was monitored. The change in the absorbance of NADPH over time was used to calculate [DXP] (μM) produced over time. Experiments were performed in triplicate.
# EcDXPS = molecular target: T2, EcDXPS (Escherichia coli, UniProt P77488); experiment: DXPS quaternary structure by native PAGE and analytical gel filtration
# T2 construct: made in house
# Method: EcDXPS (20 μM) in buffer (2 mM MgCl2, 5 mM NaCl, 1 mM ThDP, 100 mM HEPES pH 8) was preincubated with 8 ([…]) or no inhibitor for 30 min at 25 °C. Samples were then diluted 2-fold with 2× loading dye (100 mM Tris HCl pH 8, 20% glycerol, 200 mM dithiothreitol (DTT), 0.01% bromophenol blue). Samples (15 μL) were then loaded on a 7.5% PAGE gel. Gel electrophoresis was conducted at 4 °C for 30 min at 120 V, followed by 3 h at 150 V. Protein bands were stained with Protostain Blue. Experiments were performed in triplicate.
# Analytical gel filtration was performed on an AKTA-GO FPLC system held at 4 °C fitted with a Cytiva Superdex 200 Increase 5/150 GL column. A 200 μL solution containing 29 μM EcDXPS in 25 mM HEPES, pH 8, 100 mM NaCl, 1 mM MgCl2, 1% glycerol, 10 μM ThDP, and 29 μM 8 or no inhibitor was centrifuged at 13,000 rpm for 10 min to remove particulates. The resulting supernatant was loaded into a 10 μL loop attached to the FPLC via gastight syringes. […] DXPS was analyzed by isocratic elution from the column at a flow of 0.15 mL/min with 1.5 column volumes (4.5 mL). The dimer/tetramer ratio was calculated from the peak area (mL mAu) of the dimer (1.7 mL retention) peak divided by the peak area (mL mAu) of the tetramer (1.4 mL retention) peak. […]
# [1] = system: porcine pyruvate dehydrogenase (PDH) E1 subunit; experiment: Inhibition of porcine pyruvate dehydrogenase (PDH); format: biochemical
# Source text: As noted, DXPS has a large active site and follows a mechanism requiring ternary complex formation, distinct from other ThDP-dependent pyruvate decarboxylases. We hypothesized that the sterically demanding scaffold of 8, predicted to engage both substrate binding sites, should display selectivity for DXPS. In a preliminary assessment, we tested 8 as an inhibitor of porcine pyruvate dehydrogenase (PDH) E1 subunit. […] For comparison, the selectivity ratio for 1 was estimated to be >15,000-fold for DXPS over porcine PDH.
# Figure S5. Evaluation of inhibitory activity of 8 against mammalian porcine pyruvate dehydrogenase (PDH). Porcine PDH (0.01 U/mL) and inhibitor (8 or MAP positive control) were preincubated for 10 minutes at 25 °C in enzyme buffer (2 mM MgCl2, 5 mM L-cysteine, 1 mM ThDP, 300 μM TCEP, 100 mM HEPES pH 8, 2.5 mM NAD +, and 100 μM coenzyme A). The reaction was initiated by addition of pyruvate (60 μM). The change in absorbance at 340 nm over time was measured and used to calculate the initial rate of NADH formation. The % activity of PDH in the presence of 8 or MAP was plotted using GraphPad Prism version 9. There is 21% inhibition of PDH activity observed in the presence of compound 8 at a concentration of 1 mM.
# Experiments were performed in triplicate. Error bars represent standard error.
# Figure S6. Replicate progress curves for DXP formation in the presence or absence of inhibitors 8 or 10 with EcDXPS. A) Progress curves for formation of DXP in the presence of 8 display time-dependence of inhibition. B) Progress curves for formation of DXP in the presence of descarboxyl […]
# R478A EcDXPS = molecular target: T3, R478A EcDXPS (Escherichia coli, UniProt P77488, R478A); experiment: IC50 determination for 8 on R478A EcDXPS variant; format: biochemical; conditions: 400 nM DXPS, 2 × Km pyruvate, 10 × Km D-GAP
# T3 construct: made in house
# Method: EcDXPS and IspC were preincubated with inhibitor for 10 min at 25 °C in assay reaction buffer (100 mM HEPES pH 8, 2 mM MgCl2, 5 mM NaCl, 1 mM ThDP, and 200 μM NADPH). Enzyme concentrations for variants were as follows: 200 nM DXPS (wildtype EcDXPS) and 4 μM IspC; 400 nM DXPS (R99A and R478A EcDXPS) and 6 μM IspC. The reaction was initiated by the addition of substrates at final concentrations of 2 × Km pyruvate and 10 × KmD-GAP. NADPH consumption was monitored at 340 nm for 10 min at 25 °C. The initial rate of NADPH consumption was used to determine the initial rate of DXP formation catalyzed by DXPS. Experiments were performed in triplicate and error bars represented standard error.
compound,measurement,setting,value
CC(=O)P(=O)(O)OCCc1cn(C(Cc2ccccc2)(Cc2ccccc2)C(=O)O)nn1 [Compound 8],time dependence of inhibition (progress curve for DXP formation),WT EcDXPS,time dependence of inhibition
same,effect on dimer/tetramer ratio (analytical gel filtration),"EcDXPS; 29 μM EcDXPS, 29 μM 8",small but statistically significant decrease in the dimer/tetramer ratio
same,effect on EcDXPS oligomeric state (native PAGE),"EcDXPS; EcDXPS 20 μM, incubation with 8",induce the formation of higher-order enzyme oligomers
same,estimated selectivity ratio for DXPS over porcine PDH,[1]; DXPS over porcine PDH,"> 64,000 fold"
same,inhibition of PDH,"[1]; at a concentration of 1 mM, 60 μM pyruvate, 10 min preincubation",21%
same,IC50,R478A EcDXPS,1010 ± 381 nM
